From ChEMBL document CHEMBL4196047, “Discovery and evolution of aloperine derivatives as novel anti-filovirus agents through targeting entry stage” (Eur J Med Chem, 2018) come the findings set out here.

A short description of series [1]: Tmax in BALB/c mouse at 25 mg/kg, po. In kind it is ADME, organism-based. The following applies: in vivo.
The target in series [2] is Procathepsin L (Homo sapiens) (UniProt P07711). In words: Inhibition of cathepsin L in HEK293 cells using N-benzyloxycarbonyl-L-phenylalanyl-L-arginine-7-amido-4-methylcoumarin as substrate. It is filed as cell-based.
Chain of Procathepsin L (Homo sapiens) (P07711 114-333 limits assumed): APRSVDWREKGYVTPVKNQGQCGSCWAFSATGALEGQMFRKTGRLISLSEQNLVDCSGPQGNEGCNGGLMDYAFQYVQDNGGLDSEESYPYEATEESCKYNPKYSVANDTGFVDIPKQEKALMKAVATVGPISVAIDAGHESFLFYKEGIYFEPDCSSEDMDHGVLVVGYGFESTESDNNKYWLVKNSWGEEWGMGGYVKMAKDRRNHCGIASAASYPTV
Series [3] concerns HEK-293T. In words: Inhibition of endosomal acidification in HEK293T cells at 20 to 40 uM after 1 hr by LysoTracker Red dye-based confocal fluorescence microscopic analysis. The following applies: Homo sapiens. In kind it is functional, cell-based.
Series [4] concerns Ebolavirus. The series can be described thus: Antiviral activity against HIV1 pseudotyped EBOV infected in HEK293T cells assessed as inhibition of late stage viral entry at 25 uM treated for 1 hr before infection measured after 72 hrs by luciferase reporter gene assay relative to control. In kind it is functional. Conditions: Orthoebolavirus, HEK-293T.
A short description of series [5]: Toxicity in ip dosed Kunming mouse administered as single dose measured for 7 days. It is filed as organism-based. The following applies: in vivo.
Series [6] has as its system Ebolavirus. In words: Antiviral activity against HIV1 pseudotyped EBOV infected in HEK293T cells assessed as inhibition of late stage viral entry at 25 uM treated for 1 hr post infection measured after 72 hrs by luciferase reporter gene assay relative to control. It is filed as functional. Conditions: Orthoebolavirus, HEK-293T.
Series [7] is described as follows: Cmax in BALB/c mouse at 25 mg/kg, po. It is filed as ADME, organism-based. Further details: dose 25 mg/kg, route oral. The following applies: in vivo.
A short description of series [8]: Toxicity in ig dosed Kunming mouse administered as single dose measured for 7 days. The following applies: in vivo, po. In kind it is organism-based.
The nature of series [9]: Toxicity in iv dosed Kunming mouse administered as single dose measured for 7 days. In kind it is organism-based. Conditions: in vivo.
Series [10] in a line: AUC (0 to infinity) in BALB/c mouse at 25 mg/kg, po. The following applies: in vivo. Further details: dose 25 mg/kg, time infinity, route oral. It is filed as ADME, organism-based.
Series [11] relates to Marburgvirus. The series can be described thus: microbe, parasite or virus in culture. It is filed as functional, organism-based. The following applies: Orthomarburgvirus, HEK-293T.
A short description of series [12]: in vitro. Conditions: human, HEK293T cells.
Series [13] relates to Marburgvirus. The series can be described thus: Antiviral activity against HIV1 pseudotyped MARV infected in BALB/c mouse at 100 ug, iv and ip measured at day 4 by bioluminescence assay relative to control. It is filed as functional.
Series [14] concerns Ebolavirus. The series can be described thus: Antiviral activity against HIV1 pseudotyped EBOV infected in HEK293T cells assessed as inhibition of late stage viral entry at 25 uM treated during infection measured after 72 hrs by luciferase reporter gene assay relative to control. In kind it is functional. The following applies: Orthoebolavirus, HEK-293T.
Series [15] can be described thus: Half life in BALB/c mouse at 25 mg/kg, po. It is filed as ADME, organism-based. The following applies: in vivo.
The nature of series [16]: AUC (0 to t) in BALB/c mouse at 25 mg/kg, po. In kind it is ADME, organism-based. The following applies: in vivo.
The nature of series [17]: in vitro. Conditions: human, HEK293T cells. This is another data set of the same source.
The target in series [18] is Cathepsin B (Homo sapiens) (UniProt P07858). In words: Inhibition of cathepsin B in HEK293 cells using N-benzyloxycarbonyl-L-arginyl-L-arginine-7-amido-4-methylcoumarin as substrate. In kind it is cell-based.
The nature of series [19]: MRT in BALB/c mouse at 25 mg/kg, po. It is filed as ADME, organism-based. Conditions: in vivo.
Series [20] can be described thus: in vitro. Conditions: human, HEK293T cells. This is another data set of the same source.
The test system of series [21] is Ebolavirus. The series can be described thus: microbe, parasite or virus in culture. In kind it is functional, cell-based. Conditions: Orthoebolavirus, HEK-293T.
Series [22] relates to Vesicular stomatitis virus. The series can be described thus: microbe, parasite or virus in culture. It is filed as functional, organism-based. Conditions: HEK-293T.

Active and inactive are the calls of the source. The rule behind the calls is not given here.

`Clc1ccc(CN2CCCC3=C[C@H]4C[C@H](CN5CCCC[C@H]45)[C@@H]32)cc1Cl`: the Tmax in series [1] amounted to 0.67 h. The inhibition entry in series [2] and in [3] was “inactive” each time. Also, the inhibition at 25 µM in series [4] is less than 38%; in series [6] it was 85%; in series [14] it was 23 to 66%. For the same compound, the values for the LD50 at 168 h in [5], in series [8] and in series [9] were greater than 100 mg/kg, 458 mg/kg and 28.3 mg/kg, respectively. For the same compound, the Cmax in series [7] is 290 nM. In addition, the AUC(0-inf) in series [10] is 4.89 µM·h. Also, the EC50 is 7.1 µM in [11], 4.8 µM in [21] and greater than 200 µM in series [22]. Further, the selectivity ratio in series [12] is greater than 28.2; in series [17], greater than 41.7. The compound also came in with an Activity in [13] of 45%. In [15], the half-life was 4.14 h. Besides, in series [16], the AUC(0-t) was found to be 2.74 µM·h. Also, the inhibition result in [18] was “Active”. In [19], this compound had a mean residence time MRT of 4.89 h. The CC50 in series [20] was greater than 200 µM.
